According to ChEMBL document CHEMBL5154921, “Discovery and Characterization of the First Nonpeptide Antagonists for the Relaxin-3/RXFP3 System” (J Med Chem, 2022):
pKi: −log10 of the molar value.

Experiments:
[1] = biological target: 5-hydroxytryptamine receptor 1A (Homo sapiens) (UniProt P08908); test: Inhibition of serotonin 5-HT1A receptor (unknown origin) at 10 uM relative to control
[2] = biological target: 5-hydroxytryptamine receptor 7 (Homo sapiens) (UniProt P34969); test: Inhibition of serotonin 5-HT7A receptor (unknown origin) at 10 uM relative to control
[3] = biological target: Sodium-dependent serotonin transporter (Homo sapiens) (UniProt P31645); test: Inhibition of SERT receptor (unknown origin) at 10 uM relative to control
[4] = Plasma protein binding in Wister rat at 1 uM measured after 6 hrs by LC-MS/MS analysis; assay type: ADME, cell-free
[5] = biological target: D(4) dopamine receptor (Homo sapiens) (UniProt P21917); test: Inhibition of dopamine D4 receptor (unknown origin) at 10 uM relative to control
[6] = biological target: 5-hydroxytryptamine receptor 5A (Homo sapiens) (UniProt P47898); test: Inhibition of serotonin 5-HT5A receptor (unknown origin) at 10 uM relative to control
[7] = biological target: Alpha-2A adrenergic receptor (Homo sapiens) (UniProt P08913); test: Inhibition of adrenergic alpha-2A receptor (unknown origin) at 10 uM relative to control
[8] = Half life in Wistar rat plasma at 10 mg/kg, ip measured upto 8 hrs post dose by LC-MS/MS analysis; assay type: ADME, organism-based; conditions: in vivo
[9] = biological target: D(2) dopamine receptor (Homo sapiens) (UniProt P14416); test: Inhibition of dopamine D2 receptor (unknown origin) at 10 uM relative to control
[10] = biological target: D(1B) dopamine receptor (Homo sapiens) (UniProt P21918); test: Inhibition of dopamine D5 receptor (unknown origin) at 10 uM relative to control
[11] = biological target: 5-hydroxytryptamine receptor 2A (Homo sapiens) (UniProt P28223); test: Inhibition of serotonin 5-HT2A receptor (unknown origin) at 10 uM relative to control
[12] = biological target: Histamine H3 receptor (Homo sapiens) (UniProt Q9Y5N1); test: Inhibition of histamine H3 receptor (unknown origin) at 10 uM relative to control
[13] = Half life in Wistar rat brain at 10 mg/kg, ip measured upto 8 hrs post dose by LC-MS/MS analysis; assay type: ADME, organism-based; conditions: in vivo
[14] = biological target: Sigma non-opioid intracellular receptor 1 (Homo sapiens) (UniProt Q99720); test: Inhibition of sigma1 receptor (unknown origin) at 10 uM relative to control
[15] = Kinetic aqueous solubility of the compound in PBS at pH 7.4 measured after 2 hrs by LC/MS-MS method; assay type: physicochemical; conditions: buffer, pH 7.4, 2 h
[16] = biological target: Kappa-type opioid receptor (Homo sapiens) (UniProt P41145); test: Inhibition of opioid kappa receptor (unknown origin) at 10 uM relative to control
[17] = biological target: Histamine H2 receptor (Homo sapiens) (UniProt P25021); test: Inhibition of histamine H2 receptor (unknown origin) at 10 uM relative to control
[18] = Ratio of AUC in brain to plasma or Wistar rat at 10 mg/kg, ip measured upto 8 hrs post dose by LC-MS/MS analysis; assay type: ADME, organism-based
[19] = biological target: 5-hydroxytryptamine receptor 2C (Homo sapiens) (UniProt P28335); test: Inhibition of 5HT2C receptor (unknown origin) at 10 uM relative to control
[20] = biological target: D(3) dopamine receptor (Homo sapiens) (UniProt P35462); test: Inhibition of dopamine D3 receptor (unknown origin) at 10 uM relative to control
[21] = biological target: Sodium-dependent noradrenaline transporter (Homo sapiens) (UniProt P23975); test: Inhibition of NET receptor (unknown origin) at 10 uM relative to control
[22] = biological target: Beta-3 adrenergic receptor (Homo sapiens) (UniProt P13945); test: Inhibition of adrenergic beta-3 receptor (unknown origin) at 10 uM relative to control
[23] = Tmax in Wistar rat plasma at 10 mg/kg, ip measured upto 8 hrs post dose by LC-MS/MS analysis; assay type: ADME, organism-based; conditions: in vivo
[24] = Cmax in Wistar rat brain at 10 mg/kg, ip measured upto 8 hrs post dose by LC-MS/MS analysis; assay type: ADME, organism-based; parameters: time < 8 hrs, dose 10 mg/kg, route ip
[25] = biological target: Alpha-1D adrenergic receptor (Homo sapiens) (UniProt P25100); test: Inhibition of adrenergic alpha-1D receptor (unknown origin) at 10 uM relative to control
[26] = biological target: Alpha-2B adrenergic receptor (Homo sapiens) (UniProt P18089); test: Inhibition of adrenergic alpha-2B receptor (unknown origin) at 10 uM relative to control
[27] = biological target: Sigma intracellular receptor 2 (Homo sapiens, UniProt Q5BJF2); test: Inhibition of sigma-2 receptor (unknown origin)
[28] = biological target: Sodium-dependent dopamine transporter (Homo sapiens) (UniProt Q01959); test: Inhibition of DAT receptor (unknown origin) at 10 uM relative to control
[29] = biological target: D(1A) dopamine receptor (Homo sapiens) (UniProt P21728); test: Inhibition of dopamine D1 receptor (unknown origin) at 10 uM relative to control
[30] = biological target: Beta-1 adrenergic receptor (Homo sapiens) (UniProt P08588); test: Inhibition of adrenergic beta-1 receptor (unknown origin) at 10 uM relative to control
[31] = biological target: 5-hydroxytryptamine receptor 6 (Homo sapiens) (UniProt P50406); test: Inhibition of serotonin 5-HT6 receptor (unknown origin) at 10 uM relative to control
5-hydroxytryptamine receptor 6 (Homo sapiens), sequence (P50406 whole entry): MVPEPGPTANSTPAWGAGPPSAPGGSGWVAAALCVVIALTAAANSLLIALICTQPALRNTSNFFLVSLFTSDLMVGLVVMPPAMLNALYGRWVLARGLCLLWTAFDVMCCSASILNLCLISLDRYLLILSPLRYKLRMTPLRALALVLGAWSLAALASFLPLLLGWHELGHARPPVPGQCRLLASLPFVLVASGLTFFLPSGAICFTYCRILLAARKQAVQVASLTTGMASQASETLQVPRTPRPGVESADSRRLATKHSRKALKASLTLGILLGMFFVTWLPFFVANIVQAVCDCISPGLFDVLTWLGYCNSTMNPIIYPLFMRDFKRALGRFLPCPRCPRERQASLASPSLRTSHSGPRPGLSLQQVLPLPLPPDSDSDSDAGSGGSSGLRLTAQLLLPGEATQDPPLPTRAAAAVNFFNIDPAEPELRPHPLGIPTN

D(2) dopamine receptor (Homo sapiens), sequence (P14416 whole entry): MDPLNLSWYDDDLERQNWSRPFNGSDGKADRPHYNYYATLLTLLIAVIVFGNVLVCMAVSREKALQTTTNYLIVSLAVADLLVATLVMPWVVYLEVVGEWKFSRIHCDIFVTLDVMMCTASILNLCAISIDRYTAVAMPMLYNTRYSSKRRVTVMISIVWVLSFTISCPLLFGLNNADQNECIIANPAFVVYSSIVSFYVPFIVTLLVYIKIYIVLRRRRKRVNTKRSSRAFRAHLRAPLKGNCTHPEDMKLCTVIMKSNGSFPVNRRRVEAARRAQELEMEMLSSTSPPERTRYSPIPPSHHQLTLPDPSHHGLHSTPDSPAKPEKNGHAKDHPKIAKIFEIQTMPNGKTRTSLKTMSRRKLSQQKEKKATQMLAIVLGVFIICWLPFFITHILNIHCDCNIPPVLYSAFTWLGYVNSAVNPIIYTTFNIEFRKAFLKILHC
Alpha-2A adrenergic receptor (Homo sapiens), sequence (P08913 whole entry): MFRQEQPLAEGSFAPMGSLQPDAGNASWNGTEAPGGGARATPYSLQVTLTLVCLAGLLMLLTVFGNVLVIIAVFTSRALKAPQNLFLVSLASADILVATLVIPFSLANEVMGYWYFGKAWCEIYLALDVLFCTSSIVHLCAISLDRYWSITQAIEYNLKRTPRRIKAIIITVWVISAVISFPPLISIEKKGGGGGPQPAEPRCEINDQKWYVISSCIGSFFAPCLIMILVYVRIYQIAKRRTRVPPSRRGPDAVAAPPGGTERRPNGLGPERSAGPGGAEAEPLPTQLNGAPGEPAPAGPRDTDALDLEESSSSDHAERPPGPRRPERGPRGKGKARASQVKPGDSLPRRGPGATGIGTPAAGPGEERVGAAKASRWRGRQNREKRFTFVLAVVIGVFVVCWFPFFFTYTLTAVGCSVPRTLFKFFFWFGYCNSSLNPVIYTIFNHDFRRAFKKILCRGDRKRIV
D(4) dopamine receptor (Homo sapiens), sequence (P21917 whole entry): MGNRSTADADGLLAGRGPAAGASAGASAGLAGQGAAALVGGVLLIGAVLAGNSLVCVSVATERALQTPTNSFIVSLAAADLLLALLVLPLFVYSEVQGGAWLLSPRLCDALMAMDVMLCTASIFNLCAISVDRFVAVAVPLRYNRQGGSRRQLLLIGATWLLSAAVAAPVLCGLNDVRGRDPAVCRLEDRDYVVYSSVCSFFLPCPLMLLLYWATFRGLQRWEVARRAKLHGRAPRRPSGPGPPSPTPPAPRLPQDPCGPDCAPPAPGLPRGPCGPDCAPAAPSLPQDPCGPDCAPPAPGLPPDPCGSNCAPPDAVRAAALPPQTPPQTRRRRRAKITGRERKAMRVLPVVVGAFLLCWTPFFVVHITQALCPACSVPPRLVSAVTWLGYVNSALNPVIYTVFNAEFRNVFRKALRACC
Histamine H3 receptor (Homo sapiens), sequence (Q9Y5N1 whole entry): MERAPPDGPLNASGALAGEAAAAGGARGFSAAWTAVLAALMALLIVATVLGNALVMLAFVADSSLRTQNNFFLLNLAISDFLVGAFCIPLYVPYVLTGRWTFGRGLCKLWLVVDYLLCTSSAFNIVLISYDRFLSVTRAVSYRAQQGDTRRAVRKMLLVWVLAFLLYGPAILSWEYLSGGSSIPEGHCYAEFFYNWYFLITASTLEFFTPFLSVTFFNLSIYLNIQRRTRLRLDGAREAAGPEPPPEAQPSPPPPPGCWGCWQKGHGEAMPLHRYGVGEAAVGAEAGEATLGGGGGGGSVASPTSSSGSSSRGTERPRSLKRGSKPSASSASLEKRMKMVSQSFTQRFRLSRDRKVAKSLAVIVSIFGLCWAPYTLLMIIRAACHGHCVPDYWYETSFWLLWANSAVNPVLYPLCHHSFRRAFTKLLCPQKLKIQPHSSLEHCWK
Sodium-dependent serotonin transporter (Homo sapiens), sequence (P31645 whole entry, looked up): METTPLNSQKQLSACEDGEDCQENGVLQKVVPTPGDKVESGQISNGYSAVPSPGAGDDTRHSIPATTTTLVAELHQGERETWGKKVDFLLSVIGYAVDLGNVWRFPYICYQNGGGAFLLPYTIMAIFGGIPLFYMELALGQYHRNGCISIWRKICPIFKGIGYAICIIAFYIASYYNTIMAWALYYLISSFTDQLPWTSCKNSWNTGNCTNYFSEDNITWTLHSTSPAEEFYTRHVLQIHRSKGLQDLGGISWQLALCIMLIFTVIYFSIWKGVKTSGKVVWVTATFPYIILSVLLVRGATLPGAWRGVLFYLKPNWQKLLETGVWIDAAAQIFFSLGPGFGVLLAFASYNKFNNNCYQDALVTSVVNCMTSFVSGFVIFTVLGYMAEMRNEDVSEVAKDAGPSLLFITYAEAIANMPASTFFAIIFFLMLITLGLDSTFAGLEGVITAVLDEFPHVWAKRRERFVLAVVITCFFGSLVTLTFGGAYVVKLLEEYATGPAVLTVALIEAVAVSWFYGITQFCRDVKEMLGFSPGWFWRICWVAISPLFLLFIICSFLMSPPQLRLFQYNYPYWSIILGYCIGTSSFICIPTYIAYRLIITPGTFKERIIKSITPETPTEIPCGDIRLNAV
5-hydroxytryptamine receptor 2C (Homo sapiens), sequence (P28335 whole entry): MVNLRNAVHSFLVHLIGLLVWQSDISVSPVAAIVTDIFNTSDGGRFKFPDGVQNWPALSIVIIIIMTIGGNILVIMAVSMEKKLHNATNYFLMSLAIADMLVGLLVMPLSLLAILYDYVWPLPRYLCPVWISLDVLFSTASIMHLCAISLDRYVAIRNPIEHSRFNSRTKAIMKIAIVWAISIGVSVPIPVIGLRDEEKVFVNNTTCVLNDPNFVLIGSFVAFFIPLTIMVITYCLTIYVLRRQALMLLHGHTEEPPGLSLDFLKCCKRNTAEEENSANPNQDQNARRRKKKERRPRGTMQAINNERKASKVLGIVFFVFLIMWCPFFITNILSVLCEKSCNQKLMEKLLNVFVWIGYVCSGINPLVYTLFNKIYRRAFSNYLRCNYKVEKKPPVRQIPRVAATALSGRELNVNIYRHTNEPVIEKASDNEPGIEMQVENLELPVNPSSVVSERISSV
5-hydroxytryptamine receptor 5A (Homo sapiens), sequence (P47898 whole entry): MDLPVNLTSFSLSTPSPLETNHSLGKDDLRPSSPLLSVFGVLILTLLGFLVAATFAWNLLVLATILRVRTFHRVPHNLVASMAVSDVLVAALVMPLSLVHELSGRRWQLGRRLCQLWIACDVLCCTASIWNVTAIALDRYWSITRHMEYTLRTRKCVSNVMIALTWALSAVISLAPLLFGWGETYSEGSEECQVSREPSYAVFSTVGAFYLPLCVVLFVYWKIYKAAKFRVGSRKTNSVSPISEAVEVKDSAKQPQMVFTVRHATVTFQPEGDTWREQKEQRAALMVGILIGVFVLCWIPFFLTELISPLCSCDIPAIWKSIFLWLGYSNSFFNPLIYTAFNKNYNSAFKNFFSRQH
5-hydroxytryptamine receptor 2A (Homo sapiens), sequence (P28223 whole entry): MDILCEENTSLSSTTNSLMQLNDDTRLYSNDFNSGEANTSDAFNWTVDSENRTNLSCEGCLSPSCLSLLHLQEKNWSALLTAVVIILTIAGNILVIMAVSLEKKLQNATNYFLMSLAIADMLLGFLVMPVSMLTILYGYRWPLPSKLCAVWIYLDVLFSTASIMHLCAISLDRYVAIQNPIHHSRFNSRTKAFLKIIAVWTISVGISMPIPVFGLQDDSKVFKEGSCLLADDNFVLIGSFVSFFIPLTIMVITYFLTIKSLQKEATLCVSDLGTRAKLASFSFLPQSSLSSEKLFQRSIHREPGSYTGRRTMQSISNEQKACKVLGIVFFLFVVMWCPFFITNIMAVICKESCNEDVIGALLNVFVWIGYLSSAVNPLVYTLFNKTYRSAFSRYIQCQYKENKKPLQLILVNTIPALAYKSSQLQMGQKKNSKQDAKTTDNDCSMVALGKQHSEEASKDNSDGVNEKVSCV
5-hydroxytryptamine receptor 1A (Homo sapiens), sequence (P08908 whole entry): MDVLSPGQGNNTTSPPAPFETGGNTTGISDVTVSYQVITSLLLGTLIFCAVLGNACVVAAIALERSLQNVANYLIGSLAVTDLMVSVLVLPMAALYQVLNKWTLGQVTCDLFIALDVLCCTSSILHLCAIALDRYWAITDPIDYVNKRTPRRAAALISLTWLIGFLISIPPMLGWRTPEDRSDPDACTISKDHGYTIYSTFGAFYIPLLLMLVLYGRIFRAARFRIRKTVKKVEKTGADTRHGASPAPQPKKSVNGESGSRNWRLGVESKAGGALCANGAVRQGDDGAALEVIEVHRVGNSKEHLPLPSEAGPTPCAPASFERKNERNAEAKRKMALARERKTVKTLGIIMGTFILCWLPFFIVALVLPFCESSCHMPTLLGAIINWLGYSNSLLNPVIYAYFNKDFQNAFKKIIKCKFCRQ
Histamine H2 receptor (Homo sapiens), sequence (P25021 whole entry): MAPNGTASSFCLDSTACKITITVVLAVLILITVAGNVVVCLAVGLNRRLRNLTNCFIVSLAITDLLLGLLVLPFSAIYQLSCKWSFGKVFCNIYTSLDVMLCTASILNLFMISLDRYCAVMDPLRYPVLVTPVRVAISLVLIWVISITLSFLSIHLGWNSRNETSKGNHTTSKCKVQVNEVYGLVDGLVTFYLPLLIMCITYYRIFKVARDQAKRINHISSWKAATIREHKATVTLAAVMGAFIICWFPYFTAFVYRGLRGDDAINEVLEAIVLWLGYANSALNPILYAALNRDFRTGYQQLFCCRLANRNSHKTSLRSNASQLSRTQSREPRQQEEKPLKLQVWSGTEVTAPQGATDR

SMILES: O=C(Nc1ccc(-c2nc(-c3ccc(Cl)cc3)no2)cc1)C1CC(=O)N(Cc2ccco2)C1 (stereo unspecified)
- inhibition [1]: < 50%
- inhibition [2]: < 50%
- inhibition [3]: < 50%
- PPB [4]: 99.8%
- inhibition [5]: < 50%
- inhibition [6]: < 50%
- inhibition [7]: < 50%
- t1/2 [8]: 1.9 h
- inhibition [9]: < 50%
- inhibition [10]: < 50%
- inhibition [11]: < 50%
- inhibition [12]: < 50%
- t1/2 [13]: 4.9 h
- inhibition [14]: < 50%
- Kinetic_solubility [15]: < 1 µM
- inhibition [16]: < 50%
- inhibition [17]: < 50%
- Ratio [18]: 2.3
- inhibition [19]: 53%
- inhibition [20]: < 50%
- inhibition [21]: < 50%
- inhibition [22]: < 50%
- Tmax [23]: 0.5 h
- Cmax [24]: 1550 ng/mL
- inhibition [25]: < 50%
- inhibition [26]: < 50%
- pKi [27]: 5.49
- inhibition [28]: < 50%
- inhibition [29]: < 50%
- inhibition [30]: < 50%
- inhibition [31]: < 50%
